Results on one compound are retold here after article PMC4821601, “The Interactions of P-Glycoprotein with Antimalarial Drugs, Including Substrate Affinity, Inhibition and Regulation” (PLoS ONE, 2016).

On the set-up of data set [1]: method as in PMID 17337512. The conditions noted are these: monkeys ref 14; cited from earlier work.
The target of another data set is T1, P-glycoprotein (P-gp) (Homo sapiens, UniProt P08183).
T1 construct: In-vitro Caco-2 cell monolayers were used here as a model for potential drug absorption related problems and P-gp mediated transport of drugs; endogenous in cells; host or cells: Caco-2 (human colon carcinoma, ATCC)
The data set can be described thus: Bidirectional transport of rhodamine123 through Caco-2 monolayers co-incubated with antimalarials (P-gp inhibitory properties). The class given is in vitro ADME. On the procedure:
The Caco-2 cells were seeded on 0.6 cm^2 […] Millipore PCF™ filter inserts at the cell density of 65,000 cells/cm^2 as done previously in the lab. Briefly, the cells were grown for 21–24 days to allow full maturation and formation of tight monolayers. The initial experiments were conducted in mid-40s passage cells and repeated in early 80s passage Caco-2 cells. The Trans epithelial electrical resistance (TEER) was measured immediately before and after the experiment using an epithelial voltage/ohm meter and an ENDOHM 12 chamber (World precision instruments, Sarasota, FL). TEER values were measured both before and after the study with readings above 300 Ω.cm^2 considered as acceptable for tight junctions. […] In order to maintain equivalent transport medium (HBSS/HBSS with inhibitor) level both outside and inside the chambers, 300 μL was used as medium in the apical chambers and 600 μL in the basolateral chambers. […] Drugs were co-incubated with MRCP, BCRP and ATP hydrolysis blockers to determine the involvement of other efflux mechanisms. Prior to the experiment, the transport medium, HBSS or HBSS with P-gp inhibitors were pre-incubated with the cells for 30 minutes. Following incubation, inserts were placed in new well plates and donor chamber is replaced with drug or drug with inhibitor and the receiver chamber with blank HBSS or HBSS with inhibitor. Transport medium was collected from the receiver chamber after stirring at time intervals of 30, 60, 90 and 120 minutes and was replaced with the same volume of fresh HBSS, or HBSS with inhibitor, when P-gp inhibitors were used in the study. At the end of the experiment 100 μL of medium was removed from the donor chamber in addition to medium collected from the receiver chamber during the study. The cells were then washed thoroughly in cold (4°C) PBS and cell membranes attached to the inserts were sonicated for 10 minutes in a sonicating water bath and centrifuged at 10,000 g for 10 minutes. Supernatant was frozen at -80°C until assayed. The Papp values of three well plates were determined using methods modified from Artursson’s group as described by Crowe and Lemaire.
CL.vol=Aa/{[Cd0×Vd−[Aa+(Ca×Vs)]−(Ac)×n/nfin]/Vd}
CL.vol = clearance volume (mL), n = time (min), Aa = amount in acceptor compartment at time n (pmols), Cd0 = concentration in donor compartment at time zero (nM), Vd = volume of the donor compartment (mL), Ca = concentration in acceptor compartment at the previous time point (nM), Vs = sample volume of previous time point (mL), Ac = amount of compound associated with the cells (pmol), Nfin = final time point (min). Papp = Apparent permeability (cm/sec) Rate of clearance (mL/min)=CL.vol / n Papp (cm/sec)=Rate of clearance / Surface area (cm^2)
The cleared volume was plotted against time and the slope of the regression line was divided by the surface area to obtain the Papp values. […] Mean Papp for Bas-Ap direction was divided by the Ap-Bas direction to obtain the efflux ratio and values above two were considered as drugs having true efflux transport.

Data set [2] can be described thus: Bidirectional transport (Papp, efflux ratio) of antimalarials through Caco-2 cell monolayers. The class given is in vitro ADME, human. The conditions noted are these: human; for Papp at 120 min: Caco-2, Caco-2 monolayers. On the procedure: (§1) The initial experiments were conducted in mid-40s passage cells and repeated in early 80s passage Caco-2 cells. […] In order to maintain equivalent transport medium (HBSS/HBSS with inhibitor) level both outside and inside the chambers, 300 μL was used as medium in the apical chambers and 600 μL in the basolateral chambers. […] Drugs were co-incubated with MRCP, BCRP and ATP hydrolysis blockers to determine the involvement of other efflux mechanisms. Prior to the experiment, the transport medium, HBSS or HBSS with P-gp inhibitors were pre-incubated with the cells for 30 minutes. Following incubation, inserts were placed in new well plates and donor chamber is replaced with drug or drug with inhibitor and the receiver chamber with blank HBSS or HBSS with inhibitor. Transport medium was collected from the receiver chamber after stirring at time intervals of 30, 60, 90 and 120 minutes and was replaced with the same volume of fresh HBSS, or HBSS with inhibitor, when P-gp inhibitors were used in the study. At the end of the experiment 100 μL of medium was removed from the donor chamber in addition to medium collected from the receiver chamber during the study. The cells were then washed thoroughly in cold (4°C) PBS and cell membranes attached to the inserts were sonicated for 10 minutes in a sonicating water bath and centrifuged at 10,000 g for 10 minutes. Supernatant was frozen at -80°C until assayed. […] CL.vol=[…].vol = clearance volume (mL), n = time (min), Aa = amount in acceptor compartment at time n (pmols), Cd0 = concentration in donor compartment at time zero (nM), Vd = volume of the donor compartment (mL), Ca = concentration in acceptor compartment at the previous time point (nM), Vs = sample volume of previous time point (mL), Ac = amount of compound associated with the cells (pmol), Nfin = final time point (min). […] The cleared volume was plotted against time and the slope of the regression line was divided by the surface area to obtain the Papp values. […] The method from Davis and colleagues was adopted with slight modifications. Separations were performed using an Apollo C18 (5 μm, 4.6x150mm) column attached to a matched guard column (5 μm, 4.6x5.5 mm). […] The injection volume was 40 μL and column oven was maintained at 35°C. The analytes were detected at 222 nm and the retention time was 5.6 minutes. Assay developed by Pussard and co-workers were used and slight modifications were done to adjust laboratory conditions. Separation was done using a Prevail C18 (3 μm, 4.6x150mm) column attached to a Direct-connect^TM universal column prefilter. The mobile phase consisted of 20 mM (w/v) KH2PO4 in deionized water at pH 3.0 and acetonitrile (82:18) v/v. […] The injection volume was 40 μL and column oven was maintained at 30°C. The analytes were detected at 343 nm with a retention time of 2.4 minutes. […] Separations were performed using an Apollo C18 (5 μm, 4.6x150mm) column attached to matched guard column (5 μm, 4.6x5.5mm). […] The injection volume was 40 μL and column oven was maintained at 30°C. The analytes were detected at 660 nm with a retention time of 3.8 minutes. A 40 μL sample was spiked with 5 μL 0.5 mM artemisinin internal standard. […] The pipettor was adjusted to the maximum volume (100 μL). […] Pre-treated samples were loaded into the tips by gently aspirating and discarding into the same vial. The process was repeated 10 times in order to increase binding efficiency of drugs to the OMIX 96 C4 matrix. […] The LC-MS method described by […] and co-workers were modified to suit the LC-MS-MS conditions. […] Wexford, Ireland) at 40°C. […] Quantitation was performed in multiple reactions monitoring, MRM mode, using DUIS (ESI^+ and APCI^+) ion sources. […] The optimized mass spectra were acquired with an interface voltage of 4.5 kV, a detector voltage of 1.0 kV, a heat block temperature of 500°C and a desolvation temperature of 160°C.

A further data set relates to Caco-2 cell monolayers. The data set is described as above. The class given is in vitro ADME, human. How it is done:
as §1

Read-outs that look alike come from different tables or passages of the source.

T1 sequence (P08183 whole entry): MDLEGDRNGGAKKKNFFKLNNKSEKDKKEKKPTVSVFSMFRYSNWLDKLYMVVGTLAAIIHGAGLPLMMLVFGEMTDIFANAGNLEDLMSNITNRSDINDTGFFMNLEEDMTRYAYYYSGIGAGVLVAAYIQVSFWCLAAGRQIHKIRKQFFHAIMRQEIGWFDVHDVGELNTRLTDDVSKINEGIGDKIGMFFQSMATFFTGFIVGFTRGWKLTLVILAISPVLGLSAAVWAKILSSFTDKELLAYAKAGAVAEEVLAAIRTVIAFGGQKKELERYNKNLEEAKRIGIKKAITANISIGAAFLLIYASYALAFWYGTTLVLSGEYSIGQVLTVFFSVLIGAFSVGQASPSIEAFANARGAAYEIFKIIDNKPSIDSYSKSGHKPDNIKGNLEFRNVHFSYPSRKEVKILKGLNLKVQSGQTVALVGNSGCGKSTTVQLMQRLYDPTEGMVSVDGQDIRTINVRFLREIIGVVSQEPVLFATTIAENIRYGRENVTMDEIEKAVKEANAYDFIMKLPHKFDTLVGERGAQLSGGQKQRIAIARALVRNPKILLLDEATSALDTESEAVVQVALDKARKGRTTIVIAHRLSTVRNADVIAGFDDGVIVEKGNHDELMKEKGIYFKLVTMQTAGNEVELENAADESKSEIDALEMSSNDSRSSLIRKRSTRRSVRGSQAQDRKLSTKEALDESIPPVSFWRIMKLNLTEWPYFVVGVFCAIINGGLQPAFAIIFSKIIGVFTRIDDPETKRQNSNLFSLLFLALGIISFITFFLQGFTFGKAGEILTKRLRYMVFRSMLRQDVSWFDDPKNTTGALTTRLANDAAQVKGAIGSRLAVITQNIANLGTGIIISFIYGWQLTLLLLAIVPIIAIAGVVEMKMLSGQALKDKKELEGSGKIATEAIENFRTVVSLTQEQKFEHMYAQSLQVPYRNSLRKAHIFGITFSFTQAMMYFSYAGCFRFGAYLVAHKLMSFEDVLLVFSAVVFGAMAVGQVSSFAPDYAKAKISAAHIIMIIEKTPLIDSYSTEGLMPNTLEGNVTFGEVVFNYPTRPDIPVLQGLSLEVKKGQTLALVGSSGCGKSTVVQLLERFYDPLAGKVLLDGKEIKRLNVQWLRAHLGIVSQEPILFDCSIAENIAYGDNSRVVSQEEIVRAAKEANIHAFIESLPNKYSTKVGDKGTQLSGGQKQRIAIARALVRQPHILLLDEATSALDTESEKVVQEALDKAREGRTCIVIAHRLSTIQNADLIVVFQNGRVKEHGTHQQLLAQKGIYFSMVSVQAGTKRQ

In the case of `C[C@H]1[C@H](N2CCS(=O)(=O)CC2)O[C@@H]2O[C@@]3(C)CC[C@H]4[C@H](C)CC[C@@H]1[C@@]24OO3` [AM, artemisone], in data set [1], the in-vivo bioavailability entry is “higher in-vivo bioavailability compared to artesunate”. For the same compound, the P-gp inhibitory properties entry at P-glycoprotein (P-gp) (at 100 μM) and at P-glycoprotein (P-gp) (at test concentrations) was “did not exhibit P-gp inhibitory properties” each time. Moreover, the Papp at 120 min in data set [2] (drug alone, read-out: Ap-Bas directional Papp, range over concentrations tested) is 37 to 60 ×10⁻⁶ cm/s; in data set [2] (drug alone, read-out: Bas-Ap directional Papp, range over concentrations tested), 35 to 47 ×10⁻⁶ cm/s; in data set [2] (read-out: permeability across the gastrointestinal epithelium (class)), > 25 ×10⁻⁶ cm/s; in data set [2] (summary in abstract, methylene blue depending on the direction of transport, read-out: permeability), ~50 ×10⁻⁶ cm/s. Besides, in data set [2] (Caco-2, Conc (μM) + inhibitor (μM): 10, Bas-Ap divided by Ap-Bas), the efflux ratio at 120 min, 10 µM turned out to be 0.8. The Papp at 120 min, 10 µM in data set [2] (Caco-2, Conc (μM) + inhibitor (μM): 10, first-named drug measured, read-out: Papp Ap-Bas) was 59.6 ± 4.2 ×10⁻⁶ cm/s. Moreover, in data set [2] (Caco-2, Conc (μM) + inhibitor (μM): 10, first-named drug measured, read-out: Papp Bas-Ap), the Papp B→A at 120 min, 10 µM was found to be 46.9 ± 8.5 ×10⁻⁶ cm/s. The efflux ratio at 120 min, 20 µM in data set [2] (Caco-2, Conc (μM) + inhibitor (μM): 20, Bas-Ap divided by Ap-Bas) was determined as 0.9. In data set [2] (Caco-2, Conc (μM) + inhibitor (μM): 20, first-named drug measured, read-out: Papp Ap-Bas), the Papp at 120 min, 20 µM turned out to be 37 ± 4.7 ×10⁻⁶ cm/s. The Papp B→A at 120 min, 20 µM in data set [2] (Caco-2, Conc (μM) + inhibitor (μM): 20, first-named drug measured, read-out: Papp Bas-Ap) worked out at 34.7 ± 2.7 ×10⁻⁶ cm/s. In addition, the Net flow direction result in the data set with Caco-2 cell monolayers (Conc (μM) + inhibitor (μM): 10) is “Diffusion (0.25)”; in the data set with Caco-2 cell monolayers (Conc (μM) + inhibitor (μM): 20), “Diffusion (0.69)”. The “drug absorption predicted from Papp” value with Caco-2 cell monolayers (based on FDA biopharmaceutical classification system) is recorded as 100%.
